# Source: PubChem BioAssay AID1259418 (Broad Institute, 2018)
# Where “and” joins values, the source holds several entries; their conditions need not be identical. Identical values can stand only once. Records with an inconclusive call do not appear. Calls of active or inactive are those of the source.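 The calls were made as follows: active = fitted half-maximal concentration of signal decrease at or below twice the sample's top tested concentration; inconclusive = flat curve between -70 and -30 percent, or poor fit; inactive = flat within 30 percent, signal rise, or potency above limit.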 Positions of bridges follow the written chain, without caps; N, C: chain ends. Non-standard residues stand in square brackets, D forms with d. Residues, ends and D or L forms follow the SMILES beside them. ξ: configuration not given here. *: point of attachment. Heptanoyl(6-Me) = CC(C)CCCCC(=O)*; ξDab = NCCC(N)C(=O)O; ξT = CC(O)C(N)C(=O)O
# Target: T. gondii ME49Luc in IFN-y HeLa, luciferase, 72 h
# Assay: inhibitors of Toxoplasma growth in IFN-γ-primed HeLa – cell-based, ME49Luc, luciferase, 72 h, dose response (AID 1259418)
row,Compound,AC50
1,Cc1ccccc1-c1ccc([C@H]2[C@H](CO)N3CCCCN(S(=O)(=O)Cc4ccccc4)C[C@@H]23)cc1,16.5 µM
2,COc1ccc(S(=O)(=O)N(Cc2nc(-c3ccccc3OC)oc2C)c2ccccc2OC)cc1,13.7 µM
3,O=C(CCC1N=C2c3ccccc3N=C(SCc3ccc(Cl)cc3)N2C1=O)NCc1cccs1 (configuration not stated),14.9 µM
4,Fc1cccc(CSc2nc(NC3CCCCC3)c3ccccc3n2)c1,> 39 µM (inactive)
5,CCc1ccccc1-c1cccc(-n2cnnc2)c1,19.9 µM
6,Cc1cc2nc(CN3CCCC(CCc4ccc(F)cc4F)C3)cc(=O)n2[nH]1 (configuration not stated),> 20 µM (inactive)
7,O=C(c1ccc(-n2c(=S)[nH]c3ccccc3c2=O)cc1)N1CCC(O)(c2cccc(C(F)(F)F)c2)CC1,38 µM
8,Cc1nc(OCC(=O)Nc2cccc(F)c2)c2ccccc2n1,28.8 µM
9,O=C(c1cccc(F)c1)N1CCCCN2[C@H](C1)[C@@H](c1ccc(C#CC3(O)CCCC3)cc1)[C@@H]2CO,11 µM and 29.4 µM
10,C[C@@H]1CN([C@@H](C)CO)C(=O)c2cccc(NC(=O)NC3CCCCC3)c2O[C@H]1CN(C)Cc1ccc(C(F)(F)F)cc1,16 µM
11,CCOc1ccc(CC(=O)N2CCC3(CC2)Nc2cc(F)ccc2-n2cccc23)cc1OCC,> 39 µM (inactive)
12,O=C(Cc1ccncc1)N1CCCCN2[C@H](CO)[C@H](c3ccc(C#Cc4ccccc4F)cc3)[C@H]2C1,20 µM
13,CCc1c(C)sc2c1CCN(Cc1nc(-c3cccc(C)c3)oc1C)C2c1ccccc1 (configuration not stated),9.68 µM
14,Cc1ccc(NC(=O)N2CCN(Cc3nc(-c4cccc(Cl)c4)oc3C)CC2)cc1F,7.24 µM
15,CCOc1ccccc1N(Cc1nc(-c2ccccc2)oc1C)S(=O)(=O)c1ccccc1,7.75 µM
16,N#CCSC1=Nc2ccccc2C2=NC(CC(=O)NCc3cccs3)C(=O)N12 (configuration not stated),19.6 µM
17,COc1ccccc1CNC(=O)CC1N=C2c3ccccc3N=C(SCc3cc(=O)n4cc(Cl)ccc4n3)N2C1=O (configuration not stated),29.6 µM
18,CCc1ccc(S(=O)(=O)N2CCC3(CC2)NCCN=C3NCc2cccc(F)c2)cc1,16.3 µM
19,O=C(CCC1N=C2c3ccccc3N=C(SCc3cccc(F)c3)N2C1=O)NCc1ccccc1 (configuration not stated),27.4 µM
20,CCCc1cc(C2CCCN2C(=O)Cn2nc(C(F)(F)F)c3c2CCCC3)no1 (configuration not stated),21.6 µM
21,CCN1CCCC1CNC(=O)C1CCN(Cc2cc3ccccc3n2Cc2cccc(C)c2)CC1 (configuration not stated),25.5 µM
22,COc1ccc(-c2nc(Cn3nnc(-c4nc(-c5ccc(OC)c(OC)c5)no4)c3C)c(C)o2)cc1,20.6 µM
23,CC(C)Oc1ccc(NC(=O)c2nc3c(n2C(C)C)CCN(C(=O)c2ccccc2)C3)cc1,10.6 µM

row,Compound,AC50
1,Cc1ccc(-c2nc(CN(c3ccccc3)S(=O)(=O)c3cccs3)c(C)o2)cc1,10.8 µM
2,Cc1ccc(C)c(S(=O)(=O)N2CCC3(CC2)c2ncc(-c4cccc(F)c4)n2CCN3C)c1,20.9 µM
3,COc1ccc(-c2nc(CN(c3cccc(OC)c3)S(=O)(=O)c3ccc(C)cc3)c(C)o2)cc1,8.49 µM
4,Clc1ccccc1-c1nc(NCCCN2CCN(c3ccccc3)CC2)c2ccccc2n1,> 39 µM (inactive)
5,COc1ccc(NC(=O)CN2CCC3(CC2)N=C(c2cccc(C)c2)C(=O)N3)c(OC)c1,29.4 µM
6,COc1cccc(C(=O)Nc2ccc3c(c2)C(=O)N(C)[C@H]2CC[C@@H](CC(=O)N[C@@H](C)c4ccccc4)O[C@H]2CO3)c1,> 39 µM (inactive)
7,CCc1nc(OCC(=O)Nc2ccccc2C(=O)OC)c2ccccc2n1,> 39 µM (inactive)
8,O=C(Nc1ccc(F)cc1)N1CC(=O)N2[C@@H](CO)[C@@H](c3ccc(-c4cccc(F)c4)cc3)[C@@H]2C1,18.5 µM
9,COc1ccc2c(c1)NC1(CCN(C(=O)CCc3cc(OC)c(OC)c(OC)c3)CC1)c1cccn1-2,> 39 µM (inactive)
10,CC(C)(C)NC(=O)[C@@H]1CC2CCCCC2CN1C[C@@H](O)[C@H](Cc1ccccc1)NC(=O)[C@H](CC(N)=O)NC(=O)c1ccc2ccccc2n1 (some centres not stated),17.8 µM
11,Cc1ccc(Cn2c(CN3CCC(C(=O)NCCCN4CCCC4)CC3)cc3ccccc32)cc1,13.4 µM
12,CCCN1CCN(CCCNc2nc(-c3ccc(OC)cc3)nc3ccccc23)CC1,21.9 µM
13,Cc1ccc(-c2coc(-c3ccc(NC(=O)c4cccs4)cc3)n2)c(C)c1,13.8 µM
14,COc1ccc(Cl)cc1NC(=O)COc1nc(C)nc2ccccc12,24.1 µM
15,N#C[C@H]1[C@H](c2ccc(-c3cccc(F)c3)cc2)[C@@H](CO)N1C(=O)NC1CCCC1,16.7 µM
16,N#C[C@H]1[C@@H](c2ccc(C3=CCCCC3)cc2)[C@@H](CO)N1C(=O)Nc1ccccc1F,23.2 µM
17,CC(C)(O)CC(=O)NCCn1ccc2ncnc(Nc3ccc(Oc4cccc(C(F)(F)F)c4)c(Cl)c3)c21,24.1 µM
18,O=C(Nc1cccnc1)c1cc(-c2cnc(-c3ccccc3)nc2)cn1CC1CC1,34.2 µM and 26.9 µM
19,COc1ccccc1CNC1=NCCNC12CCN(S(=O)(=O)c1ccc(Cl)s1)CC2,17 µM
20,CCOC(=O)c1ccc(NC(=O)N2CCN(Cc3nc(-c4ccc(C)cc4)oc3C)CC2)cc1,37.2 µM
21,FC(F)(F)C1CN(c2cc(-c3ccccc3)nc3ccccc23)CCO1 (configuration not stated),25.1 µM
22,COc1ccc(Cc2nnc(NC(=O)CC(C)C)s2)cc1,11.3 µM
23,CNC(=O)NCC1CCC2(CCN(Cc3ccccc3)CC2)CO1 (configuration not stated),26.3 µM

row,Compound,AC50
1,CCN1CCN(c2nc(-c3ccc(OC)cc3)nc3ccccc23)CC1,17.4 µM
2,COc1cccc(-c2ccc3c(c2)[C@H]2[C@H](CCN2S(=O)(=O)c2ccccc2F)[C@@H](CO)N3)c1,25 µM and 6.64 µM
3,COc1ccc(N(Cc2nc(-c3ccccc3OC)oc2C)S(=O)(=O)c2cccs2)cc1,3.72 µM
4,CN1C(=O)c2cc(NC(=O)Cc3cccs3)ccc2OC[C@@H]2O[C@H](CC(=O)N[C@H]3CCN(Cc4ccccc4)C3)CC[C@@H]21,7.53 µM
5,CCC[C@@]1(CCc2ccccc2)CC(=O)C([C@H](CC)c2cccc(NS(=O)(=O)c3ccc(C(F)(F)F)cn3)c2)C(=O)O1 (some centres not stated),17.3 µM
6,CCc1cnc(N2[C@H](C#N)[C@H](c3ccc(C#Cc4ccccc4F)cc3)[C@@H]2CO)s1,19.4 µM
7,COc1ccc(S(=O)(=O)N(C)C[C@H]2Oc3c(NC(=O)c4nc5ccccc5s4)cccc3C(=O)N([C@@H](C)CO)C[C@@H]2C)cc1,1.77 µM and 0.196 µM
8,CCc1nc(OCC(=O)Nc2ccc(C)c(F)c2)c2ccccc2n1,26.6 µM
9,CCCCNc1ncnc2c1cnn2-c1ccc(C)cc1C,28.1 µM
10,Clc1ccc(-n2ncc3c(NCc4cccc(Cl)c4)ncnc32)cc1,16.9 µM
11,Cc1ccc(NC(=O)N2CCN(Cc3nc(-c4ccccc4C)oc3C)CC2)cc1F,> 39 µM (inactive)
12,COc1ccc(-c2nc(N(C)Cc3ccco3)c3ccccc3n2)cc1,17 µM
13,CC(C)CCCCC(=O)NC(CCN)C(=O)NC(C(=O)NC(CCN)C(=O)NC1CCNC(=O)C(C(C)O)NC(=O)C(CCN)NC(=O)C(CCN)NC(=O)[C@H](CC(C)C)NC(=O)[C@@H](CC(C)C)NC(=O)C(CCN)NC1=O)C(C)O (stereo partly drawn) ({Heptanoyl(6-Me)}-[ξDab][ξT][ξDab][ξDab][ξDab][dL]L[ξDab][ξDab][ξT]; lactam 4-C),18.3 µM
14,CC(C)(C)OC(=O)Nc1cc(-c2cn[nH]c2C2CCCN(C(=O)OC(C)(C)C)C2)ccn1 (configuration not stated),10.1 µM
15,O=C(Cc1cccnc1)N1CC(=O)N2[C@H](CO)[C@@H](c3ccc(C#CC4CCCCC4)cc3)[C@@H]2C1,8.96 µM and 14.8 µM
16,COc1ccc(-c2nc(NCCN3CCC(C)CC3)c3ccccc3n2)cc1,9.97 µM
17,Cc1ccc(C)c(S(=O)(=O)N2CCC3(CC2)NCCN=C3NCc2ccccc2F)c1,28.5 µM
18,Cc1ccc(S(=O)(=O)N2CCC3(CC2)NCCN=C3NCc2ccc(Cl)cc2)cc1C,8.04 µM
19,COc1ccc(-c2nc(N(Cc3ccco3)CC3CCCO3)c3ccccc3n2)cc1 (configuration not stated),31.8 µM
20,Cc1ccc(C(=O)N2CCC3(CC2)Nc2ccc(Cl)cc2-n2cccc23)cc1F,> 39 µM (inactive)
21,COc1ccc(-c2nc(NCCN3CCN(C)CC3)c3ccccc3n2)cc1,3.52 µM and 27.4 µM
22,O=C(CC1N=C2c3ccccc3N=C(SCc3ccc(F)cc3)N2C1=O)NCc1ccco1 (configuration not stated),20.5 µM
23,CCc1ccc(S(=O)(=O)N2CCC[C@@H]2C(=O)NCCc2csc(-c3ccccc3)n2)cc1,21.8 µM

row,Compound,AC50
1,COc1cccc(-c2ccc3c(c2)[C@@H]2[C@@H](CCN2C(=O)c2ccccc2F)[C@H](CO)N3C)c1,14.4 µM and 10.9 µM
2,O=C(CCC1N=C2c3ccccc3N=C(SCc3ccccc3F)N2C1=O)NCc1cccs1 (configuration not stated),22.4 µM
3,OC(c1cc(C(F)(F)F)nc2c(C(F)(F)F)cccc12)C1CCCCN1 (configuration not stated),6.5 µM
4,OC[C@H]1Nc2ccc(C#Cc3ccc(F)cc3)cc2[C@H]2[C@@H]1CCN2Cc1ccc2c(c1)OCO2,20 µM
5,O=C(Nc1c(C(=O)NCc2cccnc2)[nH]c2ccccc12)c1ccc(Cl)cc1,21.2 µM
6,Cc1ccc(C(=O)Nc2ccc3c(c2)CCC(=O)N3)s1,11.6 µM
7,O=C(NCc1cncc2c1CCN(Cc1cccc(F)c1)C2)C1CC1,8.45 µM
8,O=C(c1cnccn1)N1CC(=O)N2[C@H](C1)[C@H](c1ccc(/C=C/c3ccccc3)cc1)[C@@H]2CO,11.9 µM and 23.5 µM
9,O=S1(=O)c2ccccc2OCC2(CCN(Cc3ccc(F)cc3)CC2)CN1CC1CC1,26.6 µM
10,O=C(Nc1ccc(F)cc1)N1C[C@@H]2N[C@H](C1)C2c1ccc(/C=C/c2ccccc2)cc1 (some centres not stated),10.3 µM and 2.14 µM
11,CCc1c(C)sc2c1CCN(Cc1nc(-c3cc(C)ccc3C)oc1C)C2c1ccccc1 (configuration not stated),9.45 µM
12,Cc1cccc(N2CCN(C(=O)CC3Nc4c5ccccc5nc(=S)n4C3=O)CC2)c1C (configuration not stated),26.9 µM
13,CCC(=O)N1CC[C@@H]2[C@H]1c1cc(C#Cc3ccccc3F)ccc1N[C@@H]2CO,29.2 µM
14,Cc1cc(C)cc(S(=O)(=O)N2CCC3(CC2)NCCN=C3NCc2ccc(F)cc2)c1,20.5 µM
15,CCCNc1nc(-c2ccccc2Cl)nc2ccccc12,23.9 µM
16,COc1ccc(S(=O)(=O)N2CCCCN3[C@H](CO)[C@@H](c4ccc(C#CCC(C)C)cc4)[C@H]3C2)cc1,4.13 µM and 4.65 µM
17,O=C(O)CC1CCC(c2ccc(-c3ccc(Nc4ccc(C(F)(F)F)nc4)cn3)cc2)CC1 (configuration not stated),19 µM
18,COc1ccc(-c2nc(N3CCN(C4CCCCC4)CC3)c3ccccc3n2)cc1,30.1 µM
19,CCOc1ccccc1N(Cc1nc(-c2ccc(OC)cc2)oc1C)S(=O)(=O)c1ccccc1,6.35 µM
20,CCc1ccc(C(=O)Nc2ccc3c(c2)CCC(=O)N3C)cc1,7.06 µM
21,CC(C)n1cnc2c(NCC3CC3)nc(C3CCN(C(=O)c4ccccc4)CC3)cc21,21.7 µM
22,COc1ccccc1C(=O)N1CCC2(CC1)Nc1cc(F)ccc1-n1cccc12,> 39 µM (inactive)
23,Cc1ccc(C(=O)Nc2c(C(=O)NCc3cccnc3)[nH]c3ccccc23)cc1,> 39 µM (inactive)
